Source: article PMC5514153, “Targeting PTPRZ inhibits stem cell-like properties and tumorigenicity in glioblastoma cells” (Scientific Reports, 2017)

How the values were obtained:
C6 xenograft = assay: C6 subcutaneous xenograft nude mouse model; assay type: in vivo; conditions: nude mice, i.p. twice per week; NAZ2329 45 µmol (22.5 mg)/kg, TMZ 50 mg/kg; vehicle 17 days
Method: Figure 10 Antitumor effects of NAZ2329 on the C6 mouse xenograft model. (A) Nude mice were subcutaneously implanted with C6 cells (5 × 10^6 cells), and tumor size was monitored until the criteria were met (>150 mm^3). At this time, mice were randomly divided into 4 treatment groups. DMSO as the vehicle control (n = 7), NAZ2329 (45 µmol (22.5 mg)/kg body weight, n = 9), temozolomide (TMZ, 50 mg/kg, n = 9), and the combination of NAZ2329 (45 µmol/kg) with TMZ (50 mg/kg) (n = 9) were administered intraperitoneally twice per week until the humane endpoint (>3,000 mm^3 tumor size or 40 days after the treatment). Tumor growth in each animal and the number of days required to reach a tumor volume of 3,000 mm^3 are shown in the graph. Five mice were sacrificed due to tumor necrosis (shown by gray symbols in the graph), and two mice unexpectedly died suddenly during the observation period (black symbols in the graph).
Parental or Ptprz-knockdown C6 cells (5 × 10^6 cells) suspended in a volume of 100 µl were subcutaneously injected into the left hind limbs of BALB/c-nu/nu mice (females, 4 weeks old mice were purchased from Japanese Charles River Co. Ltd.). Tumor growth was measured with calipers and calculated by the formula: volume = length × width × width × 0.5, as previously described. The drug treatment initiated when the tumor size reached 150 mm^3. […]

hPTPRZ1 (D1) = target: T1, hPTPRZ1 (D1) (Homo sapiens, UniProt P23471); assay: In vitro PTPase assay (DiFMUP), PTPRZ1 D1 domain; assay type: biochemical; conditions: first PTP domain fragment
T1 construct: human PTPRZ1-D1 (amino acid residues, 1,698-2,000)
T1 sequence (P23471 1698-2000 limits assumed): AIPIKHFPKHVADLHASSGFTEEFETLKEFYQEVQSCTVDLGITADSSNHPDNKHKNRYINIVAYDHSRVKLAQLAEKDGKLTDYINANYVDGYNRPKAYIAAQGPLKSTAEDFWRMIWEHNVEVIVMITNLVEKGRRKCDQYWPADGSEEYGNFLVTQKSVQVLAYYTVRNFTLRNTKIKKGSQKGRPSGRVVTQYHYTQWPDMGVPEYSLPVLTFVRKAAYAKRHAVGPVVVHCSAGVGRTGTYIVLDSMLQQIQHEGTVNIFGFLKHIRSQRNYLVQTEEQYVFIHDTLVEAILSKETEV

hPTPRM = target: T2, hPTPRM (Homo sapiens, UniProt P28827); assay: In vitro PTPase assay (DiFMUP), PTPRM; assay type: biochemical; conditions: 60-min preincubation
T2 construct: Recombinant proteins corresponding to the entire intracellular regions (ICRs) of PTPRZ1, PTPRA, and PTPRM; made in house; host or cells: baculovirus-silkworm expression system
T2 sequence (P28827 765-1452 limits assumed): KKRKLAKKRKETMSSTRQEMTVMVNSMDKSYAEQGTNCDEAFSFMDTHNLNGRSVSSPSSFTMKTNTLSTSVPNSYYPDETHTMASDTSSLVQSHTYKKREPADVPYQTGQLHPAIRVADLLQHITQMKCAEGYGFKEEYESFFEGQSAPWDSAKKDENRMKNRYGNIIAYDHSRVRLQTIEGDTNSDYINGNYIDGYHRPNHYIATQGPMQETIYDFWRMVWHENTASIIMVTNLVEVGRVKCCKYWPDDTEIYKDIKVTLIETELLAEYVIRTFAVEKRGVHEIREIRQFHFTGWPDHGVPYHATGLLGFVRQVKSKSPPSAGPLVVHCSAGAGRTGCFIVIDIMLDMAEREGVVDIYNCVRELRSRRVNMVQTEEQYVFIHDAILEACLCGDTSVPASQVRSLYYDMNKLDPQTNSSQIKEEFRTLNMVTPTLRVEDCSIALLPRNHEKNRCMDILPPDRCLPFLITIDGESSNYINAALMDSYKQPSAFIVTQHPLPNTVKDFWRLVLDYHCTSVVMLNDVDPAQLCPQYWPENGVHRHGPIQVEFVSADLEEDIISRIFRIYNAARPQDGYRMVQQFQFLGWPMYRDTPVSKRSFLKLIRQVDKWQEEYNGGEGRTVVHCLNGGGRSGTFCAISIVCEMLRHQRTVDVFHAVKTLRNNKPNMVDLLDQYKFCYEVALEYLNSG
Method: Figure 4 NAZ2329, an allosteric inhibitor of R5 RPTP subfamily members. (A) Structure of NAZ2329. (B) Effect of preincubation of NAZ2329 on its inhibitory activity against PTPRZ. Recombinant human PTPRZ1 enzyme (the whole intracellular region) was premixed with NAZ2329 for the indicated times and followed by addition of a fluorogenic DiFMUP (non-specific PTP substrate, 6,8-difluoro-4-methylumbiliferyl phosphate) to measure PTP inhibitory activity. (C) Time dependence. The PTPRZ1 enzyme was added to the inhibitor–substrate mixture, and the inhibitory activity was determined at each time point relative to the vehicle control. (D) Reversibility of inhibition. […] The mixture was then 20-fold diluted, and recovered PTP activity was expressed as the relative activity compared with the vehicle-treated enzyme. […] PTPRZ1 enzymes were preincubated with NAZ2329 for 60 min, and the PTP activity was measured using DiFMUP. […]
Recombinant proteins corresponding to the entire intracellular regions (ICRs) of PTPRZ1, PTPRA, and PTPRM were expressed using a baculovirus-silkworm expression system, and purified as described. The ICRs of PTPRG, PTPRS, and PTPRB and the catalytic domains of PTPN1 and PTPN6 were expressed as glutathione-S-transferase (GST) fusion proteins from each pGEX plasmid in Escherichia coli strain BL21 (ref. [6]). […]

IC50 (hPTPRZ1 (D1)): 1.1 µM
IC50 (hPTPRM): 56.7 µM
SMILES: CCOc1ccc(C(F)(F)F)cc1CSc1ccsc1C(=O)NS(=O)(=O)c1ccccc1 [NAZ2329]
median day for the tumor size to reach 3,000 mm^3 (C6 xenograft): 25 days
